Laboratory results as given in patent US20210100777A1, “HEAT SHOCK PROTEIN (HSP) INHIBITION AND MONITORING EFFECTIVENESS THEREOF” (H. LEE MOFFITT CANCER CENTER AND RESEARCH INSTITUTE, INC., priority 2013, published 2021).
“Also recorded” adds a separate entry of the source.

How the values were obtained:
HSPs in 8226/LR5 cells = assay: DI-MRM relative quantification of HSPs after 17-DMAG (Example 2); format: cell-based, human; conditions: for CDC37 Fold Change, DI-MRM / HS90A Fold Change, DI-MRM / HS90B Fold Change, DI-MRM / HSP7C Fold Change, DI-MRM / HSP7E Fold Change, DI-MRM / HSP71 Fold Change, DI-MRM / HSP74 Fold Change, DI-MRM / HSPA5 Fold Change, DI-MRM / HSP90α Fold Change, DI-MRM: 8226/LR5, 50 nM, 24 hrs vs. control
Protocol: Synthesis and DI MRM of Standard Peptides. Standard peptides were synthesized and characterized as described previously (Remily-Wood et al., Proteomics Clin. Appl. 5:383-96 (2011)). An automated chip-based nanoelectrospray ion source, (NanoMate100, Advion BioSciences, Ithaca, N.Y.), was mounted on a triple quadrupole mass spectrometer (TSQ Vantage, Thermo, San Jose, Calif.). […] (SEQ ID NO:17) were diluted to 1 μM in 50% aqueous ACN with 0.1% formic acid. For synthetic peptide infusion, the spray voltage was tuned between 1.5 and 1.9 kV for stable ion signal. The gas pressure was set to 0.3 psi. Data were acquired at 20 ms per transition for 2 minutes using m/z 0.002 scan widths. The quadrupole resolution values were modulated from 0.2 to 0.7. […]
Cell Culture, Lysis, and HSP Sample Preparation for Mass Spectrometry. RPMI-8226 and 8226/LR5 cells were maintained as previously described (Bellamy et al., Cancer Res. 51:995-1002 (1991); Remily-Wood et al., Proteomics Clin. Appl. 5:383-96 (2011)). The heat shock protein 90 inhibitor, 17-desmethoxy-17-N,N-dimethylaminoethylamino-geldanamycin (17-DMAG), was dissolved in DMSO (100 μM stock). Based on prior IC50 measurements, the RPMI-8226 cells were treated with 100 nM 17-DMAG for 24 hours, and 8226/LR5 cells were treated with 50 nM 17-DMAG. Cells (n=10^6) were lysed using in aqueous 100 mM ammonium bicarbonate containing 8M urea for protein denaturation. Protein concentrations were measured by Bradford assays; consistent aliquots of total protein (380 ng) were injected for LC-MRM, and the same solutions were used for DI-MRM. Digestion, addition of SIS peptides, and mass spectrometry sample preparation were performed as described for standard proteins.
Calculation of Correction Factors to Account for Interference in DI MRM. […] To evaluate the ability to eliminate these contributions, correction factors were calculated based on LC-MRM data using the following set of equations (Equations 1 and 2): […]

M229R xenografts = assay: Xenograft experiment; format: in vivo, BALB SCID mice; conditions: 100 mg/kg, PO, 3× week, 15 days
Protocol: Xenograft experiments. BALB SCID mice (The Jackson Laboratory, Bar Harbor, Me.) were subcutaneously injected with 2.5×10^6 cells per mouse (resuspended in 111 μL L-15 media, 10 mM HEPES, 37.5 μL Matrigel). Tumors were grown to approximately 100 mm^3 prior to dosing. Mice were treated with either 100 mg XL888/kg (n=5) or an equivalent volume of vehicle (10 mM HCl), 3 times per week by oral gavage. Mouse weights and tumor volumes (L×W2/2) were measured 3 times per week. Upon completion of the experiment, vehicle and drug treated tumor biopsies were processed for LC-MRM analysis (as above).

[1] = system: matched pairs of vemurafenib naïve and resistant melanoma cell lines and melanoma cell lines with intrinsic resistance; assay: Growth inhibition, MTT assay; format: cell-based
Protocol: Growth inhibition. Cells were plated at a density of 2.5×10^4 cells per ml and left to grow overnight before being treated with increasing concentrations of vemurafenib or XL888. After 72 hours, the levels of growth inhibition were examined using the MTT assay (Smalley et al., Br. J. Cancer 96:445-9 (2007)). […] Vemurafenib and XL888 were dissolved in 100% DMSO and stored at −20° C. as a 10 mM solution.
Statistical analysis of GI50 values. Triplicate experiments were performed for each cell line under each drug treatment. To estimate the IC50 values for each cell line for each treatment, a 4-parameter Hill equation was used to model the nonlinear sigmoid relationship between the drug concentration and % cell survival. Briefly,
where x is the drug concentration, y is the % survival, ε is the error term. The four parameters in the model to estimate are: 1) the control-level effect (E); 2) the background-level effect (B); 3) the median effect concentration (GI50); and 4) the strength of the inhibition (m). The constraint of non-negative minimum background effect (B) is imposed so the model is biologically meaningful. Levenberg-Marquardt algorithm for nonlinear least squares was used to fit the model and estimate all four parameters for each cell line under each treatment. Estimated concentration at 50% cell survival, i.e., IC50, is estimated using the plugged-in parameters after model fitting. Note that when the control and background effects are 100% and 0%, respectively, the estimated GI50 and IC50 values would be identical. To compare the estimated IC50 values between the resistance and naïve paired of cell lines, after log transformation, a paired t-test was performed for each drug.

[2] = system: BIM, Mcl-1 and BMF mRNA in vemurafenib-resistant melanoma cell lines; assay: Quantitative real-time PCR; conditions: 300 nM, 48 hours
[3] = all LC-MRM transitions, interference-corrected
[4] = noise corrected, only transitions below 40% interference

In the case of CO[C@H]1/C=C\C=C(/C)C(=O)NC2=CC(=O)C(NCCN(C)C)=C(C[C@@H](C)C[C@H](OC)[C@H](O)[C@@H](C)/C=C(\C)[C@@H]1OC(N)=O)C2=O [17-DMAG, 17-Dimethylaminoethylamino-17-demethoxygeldanamycin], the “CDC37 Fold Change, DI-MRM” value (HSPs in 8226/LR5 cells; [3]) is reported as 1.24, the “HS90A Fold Change, DI-MRM” value (HSPs in 8226/LR5 cells; [3]) is reported as 1.12 and the “HS90B Fold Change, DI-MRM” value (HSPs in 8226/LR5 cells; [3]) is reported as 1.23. For the same compound, the “HSP7C Fold Change, DI-MRM” value (HSPs in 8226/LR5 cells; [3]) was 0.94, the “HSP7E Fold Change, DI-MRM” value (HSPs in 8226/LR5 cells; [3]) was 0.93 and the “HSP71 Fold Change, DI-MRM” value (HSPs in 8226/LR5 cells; [3]) was 5.50. The “HSP74 Fold Change, DI-MRM” value (HSPs in 8226/LR5 cells; [3]) was 1.33, the “HSPA5 Fold Change, DI-MRM” value (HSPs in 8226/LR5 cells; [3]) was 0.86 and the “CDC37 Fold Change, DI-MRM” value (HSPs in 8226/LR5 cells; [4]) was 1.35. The “HS90A Fold Change, DI-MRM” value (HSPs in 8226/LR5 cells; [4]) was 1.14, the “HS90B Fold Change, DI-MRM” value (HSPs in 8226/LR5 cells; [4]) was 1.23 and the “HSP7C Fold Change, DI-MRM” value (HSPs in 8226/LR5 cells; [4]) was 1.14. For the same compound, the “HSP7E Fold Change, DI-MRM” value (HSPs in 8226/LR5 cells; [4]) was 1.05, the “HSP71 Fold Change, DI-MRM” value (HSPs in 8226/LR5 cells; [4]) was 5.51 and the “HSP74 Fold Change, DI-MRM” value (HSPs in 8226/LR5 cells; [4]) was 1.41. For the same compound, the “HSPA5 Fold Change, DI-MRM” value (HSPs in 8226/LR5 cells; [4]) was 0.90, the “HSP90α Fold Change, DI-MRM” value (HSPs in 8226/LR5 cells; y3 (Least Interference)) was 0.76 and the “HSP90α Fold Change, DI-MRM” value (HSPs in 8226/LR5 cells; y3-y5 (DI-MRM Interference-Corrected)) was 1.14. For the same compound, the “HSP90α Fold Change, DI-MRM” value (HSPs in 8226/LR5 cells; y3-y5 (Selected Transitions)) was 1.13, the “HSP90α Fold Change, DI-MRM” value (HSPs in 8226/LR5 cells; y3-y6 (DI-MRM Interference-Corrected)) was 1.12 and the “changes in expression of HSP90α, DI-MRM” value (HSPs in 8226/LR5 cells; 8226/LR5, 24 hours after treatment) was 1.1 fold.

CC[C@@H](C)Nc1cc(C(=O)N[C@@H]2C[C@H]3CC[C@@H](C2)N3c2ccc(C(=O)C3CC3)cn2)c(C)cc1C(N)=O [XL888, 5-((R)-sec-butylamino)-N1-((1R,3s,5S)-8-(5-(cyclopropanecarbonyl)pyridin-2-yl)-8-azabicyclo[3.2.1]octan-3-yl)-2-methylterephthalamide] was tested, and the “regression of established M229R xenografts” value (M229R xenografts) was “significantly induce the regression; also recorded: significant levels of tumor regression”, the “growth of the cell lines” value ([1]; 1 nM-10 μM, 72 hours, MTT) was “dose dependent decreases in the growth of all the cell lines” and the “difference in growth inhibition / IC50 between naïve and resistant pairs of cell lines” value ([1]; M229/M229R, M249/M249R, WM164/WM164R, 1205Lu/1205LuR, paired t-test) was “no significant difference in IC50 values”. For the same compound, the “BIM mRNA expression” value [2] was “increase in BIM mRNA”, the “Mcl-1 expression at the mRNA level” value [2] was “blocked Mcl-1 expression at the mRNA level” and the “BMF mRNA expression” value ([2]; M229R and 1205LuR) was “only weakly induced BMF mRNA expression”.
